Reference: PMC12508057, “Discovery of ETI41 and ETI60: novel selective endosomal Toll-like receptor inhibitors for the treatment of autoimmune diseases” (Experimental & Molecular Medicine, 2025)

What was measured:
IL-23-induced psoriasis = IL-23-induced psoriasis in mice; format: in vivo, mouse; conditions: 60 mg/kg oral daily; for Improvement of disease symptoms: versus anti-IL-17A antibody IP
Protocol: Six-week-old female C57BL/6J mice were assigned to the following treatment groups: vehicle (n = 5), IMQ (n = 5), ETI41 (n = 4) and ETI60 (n = 5). The mice were obtained from Orient Bio to evaluate the effects of ETI41 and ETI60 on induced psoriasis-like symptoms. This study was approved by the Institutional Animal Care and Use Committee (IACUC; approval no. 2014-0007). Psoriasis was induced using Aldara cream (3M Pharmaceuticals), which was applied topically at 62.5 mg/cm² daily from the day after hair removal until the fourth day. Mice were orally administered 60 mg/kg ETI41 or ETI60 daily commencing on the second day of induction. For IL-23-induced psoriasis, the mice were assigned to the following treatment groups: vehicle (n = 5), IL-23 (n = 5), ETI41 (n = 5), ETI60 (n = 5) and anti-IL-17 Ab (n = 5). Recombinant mouse IL-23 (0.25 mg/kg; BioLegend) was administered via intradermal injection around the ear daily, starting the day after hair removal and continuing until the eighth day. Positive control mice received intraperitoneal (IP) injections of 30 mg/kg anti-mouse IL-17A antibody (BioLegend) on days 2, 5 and 8, while test group mice were administered daily oral doses of 60 mg/kg of ETI41 or ETI60. Changes in body weight and Psoriasis Area and Severity Index (PASI) scores (erythema, scaling and thickness) were recorded daily. Mice were initially anesthetized in an induction chamber with a gas mixture of 4% isoflurane in 70:30 […] and O2, delivered at a flow rate of 0.8 l/min. Subsequently, the isoflurane concentration was reduced to 2%, and the mice were euthanized under anesthesia via endotracheal intubation. Skin samples were collected, fixed and stained with hematoxylin and eosin for histological analysis. Dermal and epidermal thicknesses were measured using a Leica DMi8 microscope (Leica). Immunohistochemical analyses were performed using primary antibodies against CD68 (R&D Systems, MAB101141), Ki-67 (Cell Signaling Technology, 12202), IL-17A (Novus Biologicals, NBP1-72027) and IL-23 (Novus Biologicals, NBP1-76697), followed by detection using biotinylated secondary antibodies (Vector Laboratories) and diaminobenzidine (Vector Laboratories) visualization. Fluorescence measurements for IL-23-induced psoriasis were performed using primary antibodies against CD68 and Ki-67, followed by Alexa Fluor-conjugated secondary antibodies (Life Technologies). Fluorescence was analyzed using a Leica DMi8 microscope.
Anti-IL17A antibody (Ab, 60 µg) was administered by IP injection as a positive control on days 2, 5 and 8. […] CD68 and Ki-67 expression patterns were determined in skin sections from a representative of each group using immunofluorescence. i Ear skin and epidermis thickness, CD68 expression and percentage of Ki-67 cells were examined from 4’,6-diamidino-2-phenylindole-stained cells. Statistical differences between the induced case and other cases were analyzed and verified using a one-tailed Student’s t-test (*P < 0.05, **P < 0.01, ***P < 0.001).
Next, we investigated the therapeutic efficacy of ETI41 and ETI60 in an IL-23-induced mouse model of psoriasis. Psoriasis was induced through intradermal injections of recombinant murine IL-23. As a positive control, an IL-17A antibody was administered intraperitoneally at a dose of 30 mg/kg on days 2, 5 and 8 (Fig. 4f). ETI41 or ETI60 was orally administered daily at a dose of 60 mg/kg. […] These findings indicate that ETI41 and ETI60 effectively alleviate the progression of psoriasis, either through direct involvement of TLR7 or through an indirect involvement of the IL-23–Th17 axis.

[1] = system: IMQ-induced (TLR7) gene expression in RAW 264.7 cells; assay: 3' mRNA sequencing of IMQ-stimulated RAW 264.7 cells; format: cell-based, mouse; conditions: for Expression of IMQ-induced inflammation-associated genes: RAW 264.7, 2 and 4 h; for Differentially expressed genes (DEGs) / Downregulated DEGs / Upregulated DEGs: RAW 264.7, IMQ-stimulated
Protocol: RNA quality was assessed using a TapeStation 4000 system (Agilent Technologies). Libraries were prepared using a QuantSeq 3 mRNA-Seq Library Prep Kit FWD (Lexogen) and sequenced using a NextSeq 550 System (Illumina). Sequences were trimmed using BBDuk and aligned with Bowtie2, and the reads were counted using Bedtools[21]–[23]. Data were normalized using edgeR software (Ebiogen) and analyzed for gene function using the Database for Annotation, Visualization, and Integrated Discovery) and for pathway analysis using KEGG Mapper[24],[25]. RNA-seq data were deposited in the Gene Expression Omnibus database under accession number GSE255890.
Fig. 2 ETI41 and ETI60 inhibit TLR7- and TLR9-dependent downstream signaling. a, b Western blot analysis was used to quantify the protein levels of phosphorylated p-ERK, p-JNK, p38, Iκ-Bα and p65. RAW 264.7 cells were treated with 5 μM or 10 μM of ETI41 or ETI60, followed by exposure to IMQ (2 μg/ml) for 20 or 30 min (a) and ODN2395 (1 μM) for 40 or 50 min (b) respectively. β-Actin served as a loading control for the cytosol, while lamin A/C was utilized as a loading control for the nucleus. c Protein levels of IRF7 were measured after treatment with 5 μM of ETI41 or ETI60, followed by treatment with ODN2395 (1 μM) for 6 or 8 h. d BMDC cells from ex vivo were used to analyze mRNA expression levels of IL-12p40, IFN-β and CD40. Cells were pretreated with ETI41 (0.2 and 1 μM), followed by treatment with ODN2395 (1 μM) for 3 h. All experiments were independently conducted three times. Statistical differences between the induced and other cases were analyzed and verified using a one-tailed Student’s t-test (*P < 0.05, **P < 0.01, ***P < 0.001). e–g The TLR7 agonist IMQ (1 μM) was used in 3’ RNA-seq analysis to induce signaling associated with immune responses in RAW 264.7 cells. […] (e–g) depict changes in gene expression categories without pretreatment (e) after pretreatment with ETI41 (f) or after pretreatment with ETI60 (g) followed by IMQ stimulation. h Heatmaps depicting gene expression patterns within the inflammation and immune response categories (fold change >2.5, P < 0.05) of ETI41 or ETI60, dividing the time after IMQ treatment into 0, 2 and 4 h, respectively. […]

`Cc1cc2c(N)c3c(nc2n1CCCN(C)C)CCCCCC3` [ETI41] was tested, and the Body weight (IL-23-induced psoriasis) was “without significant differences”, the CD68 expression (IL-23-induced psoriasis) was “significantly decreased” and the Ear thickness (IL-23-induced psoriasis) was “significantly decreased”. For the same molecule, the Epidermal thickness (IL-23-induced psoriasis) was “significantly decreased”, the Ki-67 keratinocyte proliferation (IL-23-induced psoriasis) was “significantly decreased” and the “Improvement of disease symptoms” value (IL-23-induced psoriasis) was “comparable to or better than the anti-IL-17A antibody”. For the same molecule, the “Expression of IMQ-induced inflammation-associated genes” value [1] was “markedly reduced”, the “Differentially expressed genes (DEGs)” value [1] was 509 and the “Downregulated DEGs” value [1] was 296. For the same molecule, the “Upregulated DEGs” value [1] was 213.
With `COc1ccc2c3c(N)c4c(nc3n(CCCN(C)C)c2c1)CCCC4` [ETI60] the Body weight (IL-23-induced psoriasis) was “without significant differences”, the CD68 expression (IL-23-induced psoriasis) was “significantly decreased” and the Ear thickness (IL-23-induced psoriasis) was “significantly decreased”. The Epidermal thickness (IL-23-induced psoriasis) was “significantly decreased”, the Ki-67 keratinocyte proliferation (IL-23-induced psoriasis) was “significantly decreased” and the “Improvement of disease symptoms” value (IL-23-induced psoriasis) was “comparable to or better than the anti-IL-17A antibody”. The “Expression of IMQ-induced inflammation-associated genes” value [1] was “markedly reduced”, the “Differentially expressed genes (DEGs)” value [1] was 727 and the “Downregulated DEGs” value [1] was 380. The “Upregulated DEGs” value [1] was 347.
